Test results published in article PMC6704710, “Preclinical evaluation of 3D185, a novel potent inhibitor of FGFR1/2/3 and CSF-1R, in FGFR-dependent and macrophage-dominant cancer models” (Journal of Experimental & Clinical Cancer Research : CR, 2019).

Columns and labels:
Experiment in all cases: Eurofins kinase panel
Assay type in all cases: biochemical
Details in all cases: read-out: Inhibition rate (%)
[1] = biological target: T1, Rsk3(h) (Homo sapiens, UniProt Q15349)
T1 construct: purchased Eurofins (KinaseProfiler)
T1 sequence (Q15349 whole entry): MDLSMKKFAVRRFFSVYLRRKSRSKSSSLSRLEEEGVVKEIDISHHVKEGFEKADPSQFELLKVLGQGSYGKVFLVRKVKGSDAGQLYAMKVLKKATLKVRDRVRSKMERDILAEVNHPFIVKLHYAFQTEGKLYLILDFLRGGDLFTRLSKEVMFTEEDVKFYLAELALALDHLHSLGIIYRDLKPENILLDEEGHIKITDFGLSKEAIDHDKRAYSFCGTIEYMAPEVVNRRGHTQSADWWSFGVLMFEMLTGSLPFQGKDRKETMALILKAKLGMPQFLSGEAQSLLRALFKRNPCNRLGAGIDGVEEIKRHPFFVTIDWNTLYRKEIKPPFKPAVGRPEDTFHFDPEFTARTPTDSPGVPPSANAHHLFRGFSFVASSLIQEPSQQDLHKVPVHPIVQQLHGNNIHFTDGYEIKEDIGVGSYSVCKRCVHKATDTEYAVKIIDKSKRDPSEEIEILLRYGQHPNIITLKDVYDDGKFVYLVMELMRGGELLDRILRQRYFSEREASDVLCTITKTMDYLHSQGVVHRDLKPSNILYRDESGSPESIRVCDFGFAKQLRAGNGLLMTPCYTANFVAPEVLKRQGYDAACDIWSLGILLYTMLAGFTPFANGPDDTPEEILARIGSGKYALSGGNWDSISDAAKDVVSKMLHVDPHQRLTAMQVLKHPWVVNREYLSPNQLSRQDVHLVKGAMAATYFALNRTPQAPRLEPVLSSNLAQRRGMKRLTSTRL

[2] = biological target: T2, TSSK2(h) (Homo sapiens, UniProt Q96PF2)
T2 construct: purchased Eurofins (KinaseProfiler)
T2 sequence (Q96PF2 1-358): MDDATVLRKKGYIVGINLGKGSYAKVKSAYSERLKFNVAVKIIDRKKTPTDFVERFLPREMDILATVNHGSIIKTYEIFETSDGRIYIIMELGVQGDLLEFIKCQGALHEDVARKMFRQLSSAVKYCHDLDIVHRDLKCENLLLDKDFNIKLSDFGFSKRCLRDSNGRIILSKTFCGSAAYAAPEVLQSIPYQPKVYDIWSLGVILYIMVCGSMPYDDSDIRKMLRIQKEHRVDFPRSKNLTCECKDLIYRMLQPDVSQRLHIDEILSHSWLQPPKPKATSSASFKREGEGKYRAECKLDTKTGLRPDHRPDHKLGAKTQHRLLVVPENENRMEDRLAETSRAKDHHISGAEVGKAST

[3] = biological target: T3, PI3 Kinase (p110α(E545K)/p85α)(h) (Homo sapiens, UniProt P42336, E545K)
T3 construct: purchased Eurofins (KinaseProfiler)
T3 sequence (P42336 whole entry E545K): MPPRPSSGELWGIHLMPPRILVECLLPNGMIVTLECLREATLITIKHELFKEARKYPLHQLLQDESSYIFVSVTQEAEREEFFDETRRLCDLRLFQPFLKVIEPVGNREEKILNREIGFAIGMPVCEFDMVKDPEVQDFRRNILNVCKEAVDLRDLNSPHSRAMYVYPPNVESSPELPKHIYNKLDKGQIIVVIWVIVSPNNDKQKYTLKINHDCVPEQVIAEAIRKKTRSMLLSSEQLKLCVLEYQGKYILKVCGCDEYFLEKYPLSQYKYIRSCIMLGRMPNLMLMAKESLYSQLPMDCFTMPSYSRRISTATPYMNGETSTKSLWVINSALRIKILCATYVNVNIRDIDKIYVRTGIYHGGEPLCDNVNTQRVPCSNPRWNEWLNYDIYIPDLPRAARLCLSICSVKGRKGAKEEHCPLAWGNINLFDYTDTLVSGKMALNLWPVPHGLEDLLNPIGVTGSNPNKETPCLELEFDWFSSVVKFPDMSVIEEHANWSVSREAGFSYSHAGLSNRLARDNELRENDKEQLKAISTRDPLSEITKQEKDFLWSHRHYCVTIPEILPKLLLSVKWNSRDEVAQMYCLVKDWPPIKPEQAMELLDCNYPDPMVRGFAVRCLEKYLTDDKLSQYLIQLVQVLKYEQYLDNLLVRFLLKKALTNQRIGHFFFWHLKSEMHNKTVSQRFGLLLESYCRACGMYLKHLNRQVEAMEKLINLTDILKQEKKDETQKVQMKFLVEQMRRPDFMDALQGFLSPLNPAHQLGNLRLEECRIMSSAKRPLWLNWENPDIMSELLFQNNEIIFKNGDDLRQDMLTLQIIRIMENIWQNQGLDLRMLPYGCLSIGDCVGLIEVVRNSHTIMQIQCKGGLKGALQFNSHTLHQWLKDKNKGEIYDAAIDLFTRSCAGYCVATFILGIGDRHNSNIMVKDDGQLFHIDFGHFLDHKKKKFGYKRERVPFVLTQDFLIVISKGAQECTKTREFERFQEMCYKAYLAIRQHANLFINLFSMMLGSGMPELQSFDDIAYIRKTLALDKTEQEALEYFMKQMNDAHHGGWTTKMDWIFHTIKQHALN
T3 sequence (P27986 whole entry partner): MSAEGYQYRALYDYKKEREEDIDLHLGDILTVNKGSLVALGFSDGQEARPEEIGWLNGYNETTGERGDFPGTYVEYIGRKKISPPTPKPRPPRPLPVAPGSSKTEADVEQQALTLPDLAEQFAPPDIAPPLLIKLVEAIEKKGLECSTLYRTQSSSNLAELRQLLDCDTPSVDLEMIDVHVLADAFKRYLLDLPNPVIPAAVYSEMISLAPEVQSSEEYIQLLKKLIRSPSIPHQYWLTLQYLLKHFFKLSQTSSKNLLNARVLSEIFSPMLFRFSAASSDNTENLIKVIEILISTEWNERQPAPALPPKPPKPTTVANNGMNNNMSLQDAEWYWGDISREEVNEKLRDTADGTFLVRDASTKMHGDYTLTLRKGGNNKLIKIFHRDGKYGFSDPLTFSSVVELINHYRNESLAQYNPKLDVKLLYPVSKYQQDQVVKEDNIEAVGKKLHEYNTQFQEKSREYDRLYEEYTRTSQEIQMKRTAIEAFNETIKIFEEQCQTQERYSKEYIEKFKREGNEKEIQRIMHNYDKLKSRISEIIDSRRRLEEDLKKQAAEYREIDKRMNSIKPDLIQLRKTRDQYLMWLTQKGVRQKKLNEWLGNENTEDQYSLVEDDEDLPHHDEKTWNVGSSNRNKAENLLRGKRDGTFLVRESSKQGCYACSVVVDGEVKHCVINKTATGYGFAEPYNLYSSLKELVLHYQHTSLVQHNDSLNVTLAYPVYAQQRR

[4] = biological target: T4, Met(M1268T)(h) (Homo sapiens, UniProt P08581, M1250T)
T4 construct: purchased Eurofins (KinaseProfiler)

[5] = biological target: T5, DYRK2(h) (Homo sapiens, UniProt Q92630)
T5 construct: purchased Eurofins (KinaseProfiler)
T5 sequence (Q92630 1-601): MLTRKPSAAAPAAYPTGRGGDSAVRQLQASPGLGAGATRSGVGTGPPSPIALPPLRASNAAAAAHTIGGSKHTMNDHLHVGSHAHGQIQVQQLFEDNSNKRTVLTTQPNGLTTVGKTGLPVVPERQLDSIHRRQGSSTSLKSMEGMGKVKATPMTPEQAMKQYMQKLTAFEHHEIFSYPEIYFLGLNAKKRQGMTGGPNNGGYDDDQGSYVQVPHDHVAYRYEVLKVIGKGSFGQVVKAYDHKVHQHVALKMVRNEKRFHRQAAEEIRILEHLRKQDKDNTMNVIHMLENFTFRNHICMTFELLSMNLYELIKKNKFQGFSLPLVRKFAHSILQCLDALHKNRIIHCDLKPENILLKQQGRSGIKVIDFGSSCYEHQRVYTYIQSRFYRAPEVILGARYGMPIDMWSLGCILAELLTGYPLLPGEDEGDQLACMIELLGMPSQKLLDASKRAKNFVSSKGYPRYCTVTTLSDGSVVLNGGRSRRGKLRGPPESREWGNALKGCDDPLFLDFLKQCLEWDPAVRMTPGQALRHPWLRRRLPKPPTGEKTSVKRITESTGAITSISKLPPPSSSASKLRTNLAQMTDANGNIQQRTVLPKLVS

[6] = biological target: T6, MARK1(h) (Homo sapiens, UniProt Q9P0L2)
T6 construct: purchased Eurofins (KinaseProfiler)
T6 sequence (Q9P0L2 whole entry): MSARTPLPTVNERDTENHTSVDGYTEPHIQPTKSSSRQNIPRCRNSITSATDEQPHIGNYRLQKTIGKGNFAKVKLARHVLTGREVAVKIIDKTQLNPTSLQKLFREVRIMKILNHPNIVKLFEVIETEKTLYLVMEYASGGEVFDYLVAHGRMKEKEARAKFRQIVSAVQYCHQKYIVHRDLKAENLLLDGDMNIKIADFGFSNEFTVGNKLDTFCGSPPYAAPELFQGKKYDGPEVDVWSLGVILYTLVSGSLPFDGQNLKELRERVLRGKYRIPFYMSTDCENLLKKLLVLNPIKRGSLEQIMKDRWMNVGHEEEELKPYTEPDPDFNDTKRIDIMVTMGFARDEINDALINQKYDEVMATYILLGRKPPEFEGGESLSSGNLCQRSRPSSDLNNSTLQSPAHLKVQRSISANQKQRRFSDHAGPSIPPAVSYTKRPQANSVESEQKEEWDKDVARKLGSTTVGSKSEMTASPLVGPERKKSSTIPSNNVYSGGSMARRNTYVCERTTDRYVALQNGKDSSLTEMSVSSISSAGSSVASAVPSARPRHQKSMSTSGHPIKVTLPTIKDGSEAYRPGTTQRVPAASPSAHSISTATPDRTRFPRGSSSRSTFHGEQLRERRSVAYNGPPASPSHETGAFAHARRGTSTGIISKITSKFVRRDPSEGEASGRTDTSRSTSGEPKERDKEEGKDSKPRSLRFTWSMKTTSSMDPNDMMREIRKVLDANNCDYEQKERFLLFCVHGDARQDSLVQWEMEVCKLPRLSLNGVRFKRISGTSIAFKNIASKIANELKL

[7] = biological target: T7, STK33(h) (Homo sapiens, UniProt Q9BYT3)
T7 construct: purchased Eurofins (KinaseProfiler)
T7 sequence (Q9BYT3 whole entry): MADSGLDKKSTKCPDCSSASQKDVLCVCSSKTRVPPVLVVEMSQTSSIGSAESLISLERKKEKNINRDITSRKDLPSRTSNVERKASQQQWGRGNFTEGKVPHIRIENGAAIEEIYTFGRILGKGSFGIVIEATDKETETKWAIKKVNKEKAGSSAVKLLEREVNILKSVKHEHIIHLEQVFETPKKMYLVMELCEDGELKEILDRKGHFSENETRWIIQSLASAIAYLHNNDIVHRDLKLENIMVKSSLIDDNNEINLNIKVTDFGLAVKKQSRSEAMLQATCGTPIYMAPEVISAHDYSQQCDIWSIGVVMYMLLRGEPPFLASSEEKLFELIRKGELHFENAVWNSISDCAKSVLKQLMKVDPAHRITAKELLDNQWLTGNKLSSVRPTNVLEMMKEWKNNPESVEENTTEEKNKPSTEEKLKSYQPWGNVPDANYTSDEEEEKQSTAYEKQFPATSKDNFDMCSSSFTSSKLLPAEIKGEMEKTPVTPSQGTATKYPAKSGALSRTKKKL

[8] = biological target: T8, PI3 Kinase (p110α/p65α)(h) (Homo sapiens, UniProt P42336)
T8 construct: purchased Eurofins (KinaseProfiler)
T8 sequence (P42336 whole entry): as the sequence (P42336 whole entry E545K) above, with K545E counted along it
T8 sequence (P27986 1-571 partner limits assumed): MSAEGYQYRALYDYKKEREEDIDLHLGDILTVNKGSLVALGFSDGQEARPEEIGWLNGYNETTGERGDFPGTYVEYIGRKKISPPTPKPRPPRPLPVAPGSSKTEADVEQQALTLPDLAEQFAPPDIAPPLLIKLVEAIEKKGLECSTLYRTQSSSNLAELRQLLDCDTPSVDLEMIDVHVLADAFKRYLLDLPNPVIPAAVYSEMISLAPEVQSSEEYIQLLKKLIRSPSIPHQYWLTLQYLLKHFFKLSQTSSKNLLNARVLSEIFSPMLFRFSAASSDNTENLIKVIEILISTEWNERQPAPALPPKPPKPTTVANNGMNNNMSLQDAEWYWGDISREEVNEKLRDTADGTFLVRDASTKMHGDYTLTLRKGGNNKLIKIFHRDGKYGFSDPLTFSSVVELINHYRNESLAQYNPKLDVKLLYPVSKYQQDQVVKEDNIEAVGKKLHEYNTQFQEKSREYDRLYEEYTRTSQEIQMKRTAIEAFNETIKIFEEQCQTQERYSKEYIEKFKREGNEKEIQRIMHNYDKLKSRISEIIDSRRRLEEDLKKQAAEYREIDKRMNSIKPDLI

[9] = biological target: T9, HPK1(h) (Homo sapiens, UniProt Q92918)
T9 construct: purchased Eurofins (KinaseProfiler)

[10] = biological target: T10, MEK2(h) (Homo sapiens, UniProt P36507)
T10 construct: purchased Eurofins (KinaseProfiler)
T10 sequence (P36507 whole entry): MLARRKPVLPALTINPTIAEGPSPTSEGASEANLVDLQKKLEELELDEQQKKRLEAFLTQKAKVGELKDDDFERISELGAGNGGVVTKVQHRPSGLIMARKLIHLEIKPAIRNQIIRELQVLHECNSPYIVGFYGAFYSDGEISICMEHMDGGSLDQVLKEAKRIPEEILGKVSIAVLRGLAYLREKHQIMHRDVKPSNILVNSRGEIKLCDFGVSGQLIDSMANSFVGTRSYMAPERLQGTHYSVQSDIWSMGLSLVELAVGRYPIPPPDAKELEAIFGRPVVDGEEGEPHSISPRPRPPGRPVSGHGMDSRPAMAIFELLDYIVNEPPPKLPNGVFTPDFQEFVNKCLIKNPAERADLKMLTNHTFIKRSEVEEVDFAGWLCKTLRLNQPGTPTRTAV

[11] = biological target: T11, GRK6(h) (Homo sapiens, UniProt P43250)
T11 construct: purchased Eurofins (KinaseProfiler)

COc1cc(OC)c(Cl)c(-c2ccc3c(NC(=O)c4ccc(N5CCNC(C)(C)C5)cc4)n[nH]c3n2)c1Cl [3D185]
inhibition at 0.01 µM ([1]; 10 nM): -17%
inhibition at 0.1 µM ([1]; 100 nM): -19%
inhibition at 1 µM ([1]; 1000 nM): -15%
inhibition at 0.01 µM ([2]; 10 nM): 6%
inhibition at 0.1 µM ([2]; 100 nM): 5%
inhibition at 1 µM ([2]; 1000 nM): -4%
inhibition at 0.01 µM ([3]; 10 nM): -2%
inhibition at 0.1 µM ([3]; 100 nM): -2%
inhibition at 1 µM ([3]; 1000 nM): 2%
inhibition at 0.01 µM ([4]; 10 nM): -12%
inhibition at 0.1 µM ([4]; 100 nM): -11%
inhibition at 1 µM ([4]; 1000 nM): 15%
inhibition at 0.01 µM ([5]; 10 nM): -1%
inhibition at 0.1 µM ([5]; 100 nM): -1%
inhibition at 1 µM ([5]; 1000 nM): 12%
inhibition at 0.01 µM ([6]; 10 nM): -11%
inhibition at 0.1 µM ([6]; 100 nM): -13%
inhibition at 1 µM ([6]; 1000 nM): -25%
inhibition at 0.01 µM ([7]; 10 nM): 3%
inhibition at 0.1 µM ([7]; 100 nM): 9%
inhibition at 1 µM ([7]; 1000 nM): 13%
inhibition at 0.01 µM ([8]; 10 nM): 3%
inhibition at 0.1 µM ([8]; 100 nM): 2%
inhibition at 1 µM ([8]; 1000 nM): 0%
inhibition at 0.01 µM ([9]; 10 nM): 17%
inhibition at 0.1 µM ([9]; 100 nM): 65%
inhibition at 1 µM ([9]; 1000 nM): 94%
inhibition at 0.01 µM ([10]; 10 nM): -18%
inhibition at 0.1 µM ([10]; 100 nM): -19%
inhibition at 1 µM ([10]; 1000 nM): 8%
inhibition at 0.01 µM ([11]; 10 nM): -4%
inhibition at 0.1 µM ([11]; 100 nM): -6%
inhibition at 1 µM ([11]; 1000 nM): -5%
